Test results taken from US20230293630A1, “Coronavirus T Cell Epitopes and Uses Thereof” (priority 2020, published 2023).
Where two headings read alike, the source gives them in different places.

System: SARS-CoV-2-specific CD4+ T cells (OX40+CD137+) in PBMC
Format: cell-based, human
[1] = CD4+ T cell epitopes identified by AIM assay, share of donors responding
[2] = CD4+ T cell epitopes identified by AIM assay, sum of response per responding donor
[3] = CD4+ T cell epitopes identified by AIM assay, total response
[4] = CD4+ T cell epitopes identified by AIM assay, percent of tested donors responding
[5] = CD4+ T cell epitopes identified by AIM assay, total response summed over donors

| Sequence | Frequency of response (%) [1] | Magnitude by # of responding donors [2] | Sum of response [3] | Frequency of response (%) [4] | Sum of response [5] | Frequency of response (%) | Magnitude by # of responding donors | Sum of response |
| --- | --- | --- | --- | --- | --- | --- | --- | --- |
| GGDGKMKDLSPRWYF | 15% | 148 | 295 | – | – | – | – | – |
| GTILTRPLLESELVI | 17% | 161 | 322 | – | – | – | – | – |
| LTGTGVLTESNKKFL | 7% | 427 | 427 | – | – | – | – | – |
| DAALALLLLDRLNQL [SEQ ID NO 246] | 21% | 488 | 1463 | – | – | – | – | – |
| IGNYTVSCLPFTINC | 45% | 245 | 1223 | – | – | – | – | – |
| VNARLRAKHYVYIGD | 8% | 116 | 116 | – | – | – | – | – |
| GVPINTNSSPDDQIG | 8% | 108 | 108 | – | – | – | – | – |
| FVSLAIDAYPLTKHP | 14% | 115 | 230 | – | – | – | – | – |
| QEPKLGSLVVRCSFY | 9% | 124 | 124 | – | – | – | – | – |
| CPFGEVFNATRFASV | – | 108 | – | 9% | 108 | – | – | – |
| QPYRVVVLSFELLHA | 7% | 183 | 183 | – | – | – | – | – |
| GINASVVNIQKEIDR | – | 267 | – | 8% | 267 | – | – | – |
| NLYDKLVSSFLEMKS | 8% | 150 | 150 | – | – | – | – | – |
| RLFARTRSMWSFNPE | 8% | 141 | 141 | – | – | – | – | – |
| NIDGYFKIYSKHTPI | 45% | 295 | 1475 | – | – | – | – | – |
| SVLYNSASFSTFKCY | 8% | 892 | 892 | – | – | – | – | – |

| Sequence | Frequency of response (%) [1] | Magnitude by # of responding donors [2] | Sum of response [3] | Frequency of response (%) [4] | Sum of response [5] | Frequency of response (%) | Magnitude by # of responding donors | Sum of response |
| --- | --- | --- | --- | --- | --- | --- | --- | --- |
| IDAYPLTKHPNQEYA | 14% | 115 | 229 | – | – | – | – | – |
| SGHNLAKHCLHVVGP | 8% | 148 | 148 | – | – | – | – | – |
| HKNNKSWMESEFRVY | 9% | 572 | 572 | – | – | – | – | – |
| LPDPSKPSKRSFIED | 8% | 109 | 109 | – | – | – | – | – |
| YDANYFLCWHTNCYD | 7% | 209 | 209 | – | – | – | – | – |
| TQHQPYVVDDPCPIH | 36% | 338 | 1352 | – | – | – | – | – |
| TDYKHWPQIAQFAPS | 8% | 180 | 180 | – | – | – | – | – |
| NAPRITFGGPSDSTG | 6% | 259 | 259 | – | – | – | – | – |
| LMIERFVSLAIDAYP [SEQ ID NO 259] | – | 388 | – | 36% | 1941 | – | – | – |
| FTINCQEPKLGSLVV | – | – | – | – | – | 27% | 167 | 502 |
| GKQGNFKNLREFVFK | 9% | 129 | 129 | – | – | – | – | – |
| TNSRIKASMPTTIAK | 8% | 360 | 360 | – | – | – | – | – |
| CNLLLLFVTVYSHLL | 18% | 212 | 424 | – | – | – | – | – |
| LIFLWLLWPVTLACF | 8% | 1194 | 1194 | – | – | – | – | – |
| KPSKRSFIEDLLFNK | – | 622 | – | 17% | 1243 | – | – | – |
